Measurements: paper PMC8639922, “KSHV transactivator-derived small peptide traps coactivators to attenuate MYC and inhibits leukemia and lymphoma cell growth” (Communications Biology, 2021)
Square brackets hold non-standard residues; d marks the D form. Peptide text beside a SMILES is read from it. Orn = NCCC[C@H](N)C(=O)O; βAla = NCCC(=O)O

Experiments:
Type in all cases: cell-based, human
[1] = test system: MYC promoter and putative enhancer regions; experiment: CUT&RUN qPCR, H3K27Ac modification; design: key: enrichment normalized to spiked-in luciferase plasmid DNA control; conditions: spiked-in luciferase plasmid control
Excerpt: We next examined the molecular mechanism of MYC down-regulation by VGN50. We first utilized Cleavage under targets & release using nuclease (CUT&RUN)-sequencing to examine histone modifications that are known to be associated with enhancers in order to map putative MYC enhancer regions in PEL cells (Fig. 5a). Genome-wide CUT&RUN studies identified putative enhancer and promoter regulatory regions that are marked by H3K27Ac, H3K4me1, POLR2A (RNAPII), BRD4, and SMARCC1, a component of the SWI/SNF complex (Fig. 1b and 5a). The identified putative MYC enhancers were also in good agreement with previous ChIP Hi-C[53] and ChIP-seq data sets[54]. Specific primer pairs were then designed to amplify the respective enhancer regions and to examine regulation of coactivator complex recruitment by VGN50.
Fig. 5 A molecular mechanism of VGN50-mediated MYC-down-regulation. a Cleavage under targets & release using nuclease (CUT&RUN). CUT&RUN was performed with BCBL-1 and BC-1 with the indicated antibodies. Enrichment of active histone modifications, and occupancies of RNAPII and SWI/SNF components at the MYC genomic region are shown as peaks. One of the biological duplicate samples for the BCBL-1 cell line is presented. […] The MYC promoter, enhancer, and negative control regions used for qPCR analyses are indicated with shading. The positions of the MYC coding region, CASC11 coding region, and long non-coding RNA, PVT1, MIR1208 are shown in the panel. b VGN50 inhibits coactivator complex recruitment and c reduces H3K27Ac modification. qPCR is used to examine enrichment of DNA fragments in the presence of VGN50 or mutant peptide (24 μM). Peptide was applied 1 h prior to processing samples for CUT&RUN to replicate SLAM-seq experimental conditions. Non-specific IgG control was also included and enrichment with IgG control at each genomic region was set as 1 for b, and spiked-in luciferase plasmid DNA was used for additional internal control for c. d Formation of a larger protein complex with VGN50. Sucrose gradient sedimentation was used to monitor changes in protein complex formation in the presence of VGN50. The experiment flow chart is shown at the top of this panel. Fractions were collected from top (#1) to bottom (#23/24). Sample #24 without peptide is a smaller fraction of residual samples. Immunoblotting was performed on the odd number samples and the remaining fraction (#24 for no peptide sample) and probed with Flag-tagged SWI/SNF components (SMARCA4, SMARCC2, and SMARCB1). The position of each protein component based on molecular size is indicated. e KSHV K-Rta colocalizes with SWI/SNF components in reactivating BCBL-1 cells. TREx-BCBL-1 cells were triggered for reactivation by treatment with Dox and TPA for 28 h and stained with the indicated antibodies. Images were acquired with Keyence fluorescence microscopy. f A model for VGN50 molecular action. A model depicting the putative molecular action of VGN50 is presented. Coactivator complexes are dynamically assembled on enhancer and promoter regions via transcription factor binding. VGN50, an IDR fragment derived from an exceptionally potent viral transactivator, flexibly interacts with components of coactivators and traps them, thus reduces the available resources for cellular enhancers to activate MYC promoters.
CUT&RUN[72] was performed essentially by following the online protocol developed by Dr. Henikoff’s lab with a few modifications to fit our needs. Cells were washed with PBS and wash buffer [20 mM HEPES-KOH pH 7.5, 150 mM NaCl, 0.5 mM Spermidine (Sigma, S2626), and proteinase inhibitor (Roche)]. After removing the wash buffer, cells were captured on magnetic concanavalin A (ConA) beads (Polysciences, PA, USA) in the presence of CaCl2. […]

BC-1 = experiment: Flow cytometry, apoptosis induction (Annexin V staining); conditions: BC-1, 24 h, AnnexinV+ 7AAD-
Experimental: (§1) Leukoreduction system chambers (LRS) from healthy donors were purchased from Vitalant. Peripheral blood mononuclear cells (PBMCs) were prepared by a standard Ficoll gradient method. PBMCs along with THP-1 and BCBL-1 cell lines (2 × 10^6 cells/ml, 0.2 ml 10% FBS/RPMI/DMEM per well of a 96-well plate) were treated with various doses (0–256 μM) of either VGN50 peptide or control mutant peptide for 24 h. Cell death, apoptosis, and proliferation were analyzed by flow cytometry (BD Acuri) after intracellular staining with anti-humanKi67-Alexa488 (Biolegend, 1:100) along with the isotype control antibody, annexin-V-FITC with 7-AAD staining (Biolegend) according to the manufacture’s protocol, Live/dead Fixable Red Dead Cell staining kit (Invitrogen) according to the manufacture’s protocol, or MTT assay. Peptides were commercially synthesized (GenScript) with >90% purity with TFA removal.
(§2) AnnexinV+ 7AAD- % = apoptosis % […]
(§3) S-Figure 3. Flow cytometry analyses
(§4) (a) Apoptosis (%) was determined as Annexi nV+ 7AAD- popul at i on gat ed i n r ed shown i n
(§5) representative FACS plots of BCBL-1 cel l s t r eat ed wi t h PBS or VGN50 at 32µM. […]

BCBL-1 = experiment: as above; conditions: BCBL-1, 24 h, AnnexinV+ 7AAD-
Experimental: as §1, §2, §3, §4, §5

Question: CC(C)C[C@H](NC(=O)CCNC(=O)[C@H](CCCNC(=N)N)NC(=O)[C@H](CCCNC(=N)N)NC(=O)[C@H](CCCNC(=N)N)NC(=O)[C@H](CCCN)NC(=O)[C@H](CCCNC(=N)N)NC(=O)[C@H](CCCNC(=N)N)NC(=O)[C@H](CCCCN)NC(=O)[C@H](CCCCN)NC(=O)[C@H](N)CCCNC(=N)N)C(=O)N[C@@H](CO)C(=O)N[C@@H](CO)C(=O)N[C@@H](C)C(=O)N[C@@H](C)C(=O)N[C@@H](C)C(=O)NCC(=O)N[C@@H](CC(C)C)C(=O)N[C@@H](Cc1ccc(O)cc1)C(=O)N[C@@H](CCC(N)=O)C(=O)N[C@@H](CC(C)C)C(=O)N[C@@H](CC(=O)O)C(=O)N[C@H](C(=O)O)[C@@H](C)O [Mt-P] (H-[dR]KKRR[Orn]RRR[βAla]LSSAAAGLYQLDT-OH; N-terminus and C-terminus assumed) was tested. Which “H3K27Ac enrichment, CUT&RUN qPCR” value ([1]; region Cont., peptide 24 μM 1 h, replicate 1) did it give?
Answer: The value was 1.234.

Question: What about the “H3K27Ac enrichment, CUT&RUN qPCR” value ([1]; region Cont., peptide 24 μM 1 h, replicate 2) of the same compound?
Answer: The value was 1.768.

Question: And the “H3K27Ac enrichment, CUT&RUN qPCR” value ([1]; region Cont., peptide 24 μM 1 h, replicate 3)?
Answer: Its value is 1.486.

Question: What about the “H3K27Ac enrichment, CUT&RUN qPCR” value ([1]; region E3, peptide 24 μM 1 h, replicate 1) of the same compound?
Answer: The value was 2.706.

Question: And the “H3K27Ac enrichment, CUT&RUN qPCR” value ([1]; region E3, peptide 24 μM 1 h, replicate 2)?
Answer: Its value is 2.727.

Question: And the “H3K27Ac enrichment, CUT&RUN qPCR” value ([1]; region E3, peptide 24 μM 1 h, replicate 3)?
Answer: The value was 2.006.

Question: And the “H3K27Ac enrichment, CUT&RUN qPCR” value ([1]; region E4, peptide 24 μM 1 h, replicate 1)?
Answer: Its value is 25.383.

Question: And the “H3K27Ac enrichment, CUT&RUN qPCR” value ([1]; region E4, peptide 24 μM 1 h, replicate 2)?
Answer: The value was 24.888.

Question: And the “H3K27Ac enrichment, CUT&RUN qPCR” value ([1]; region E4, peptide 24 μM 1 h, replicate 3)?
Answer: Its value is 21.090.

Question: And the “H3K27Ac enrichment, CUT&RUN qPCR” value ([1]; region E5, peptide 24 μM 1 h, replicate 1)?
Answer: Its value is 8.581.

Question: What about the “H3K27Ac enrichment, CUT&RUN qPCR” value ([1]; region E5, peptide 24 μM 1 h, replicate 2) of the same compound?
Answer: Its value is 8.863.

Question: And the “H3K27Ac enrichment, CUT&RUN qPCR” value ([1]; region E5, peptide 24 μM 1 h, replicate 3)?
Answer: The value was 8.913.

Question: And the “H3K27Ac enrichment, CUT&RUN qPCR” value ([1]; region P1, peptide 24 μM 1 h, replicate 1)?
Answer: Its value is 6.685.

Question: And the “H3K27Ac enrichment, CUT&RUN qPCR” value ([1]; region P1, peptide 24 μM 1 h, replicate 2)?
Answer: The value was 5.570.

Question: And the “H3K27Ac enrichment, CUT&RUN qPCR” value ([1]; region P1, peptide 24 μM 1 h, replicate 3)?
Answer: Its value is 7.094.

Question: And the “AnnexinV+%” value (BC-1; replicate 1)?
Answer: The value was 4.73%.

Question: And the “AnnexinV+%” value (BC-1; replicate 2)?
Answer: Its value is 4.24%.

Question: And the “AnnexinV+%” value (BC-1; replicate 3)?
Answer: The value was 4.01%.

Question: What about the “AnnexinV+%” value (BCBL-1; replicate 1) of the same compound?
Answer: The value was 3.66%.

Question: What about the “AnnexinV+%” value (BCBL-1; replicate 2) of the same compound?
Answer: The value was 5.9%.

Question: And the “AnnexinV+%” value (BCBL-1; replicate 3)?
Answer: The value was 4.52%.
